Data as given in paper PMC10424705, “Physiological insight into the conserved properties of Caenorhabditis elegans acid‐sensing degenerin/epithelial sodium channels” (The Journal of Physiology, 2022).

What was measured:
Assay in all cases: two-electrode voltage clamp, Xenopus oocytes
Type in all cases: cell-based
UNC-105h [1] = target: T1, UNC-105h (Caenorhabditis elegans, UniProt Q09274); details: pH 7.4, -60 mV, ND96, room temperature; second, current-restoring phase of biphasic response; text b54 prints 6.7 µM instead
T1 construct: isoform h cDNA in KSM vector, Xenopus laevis oocytes, homomeric channel (trimer by known biology)
T1 sequence (Q09274 1-887): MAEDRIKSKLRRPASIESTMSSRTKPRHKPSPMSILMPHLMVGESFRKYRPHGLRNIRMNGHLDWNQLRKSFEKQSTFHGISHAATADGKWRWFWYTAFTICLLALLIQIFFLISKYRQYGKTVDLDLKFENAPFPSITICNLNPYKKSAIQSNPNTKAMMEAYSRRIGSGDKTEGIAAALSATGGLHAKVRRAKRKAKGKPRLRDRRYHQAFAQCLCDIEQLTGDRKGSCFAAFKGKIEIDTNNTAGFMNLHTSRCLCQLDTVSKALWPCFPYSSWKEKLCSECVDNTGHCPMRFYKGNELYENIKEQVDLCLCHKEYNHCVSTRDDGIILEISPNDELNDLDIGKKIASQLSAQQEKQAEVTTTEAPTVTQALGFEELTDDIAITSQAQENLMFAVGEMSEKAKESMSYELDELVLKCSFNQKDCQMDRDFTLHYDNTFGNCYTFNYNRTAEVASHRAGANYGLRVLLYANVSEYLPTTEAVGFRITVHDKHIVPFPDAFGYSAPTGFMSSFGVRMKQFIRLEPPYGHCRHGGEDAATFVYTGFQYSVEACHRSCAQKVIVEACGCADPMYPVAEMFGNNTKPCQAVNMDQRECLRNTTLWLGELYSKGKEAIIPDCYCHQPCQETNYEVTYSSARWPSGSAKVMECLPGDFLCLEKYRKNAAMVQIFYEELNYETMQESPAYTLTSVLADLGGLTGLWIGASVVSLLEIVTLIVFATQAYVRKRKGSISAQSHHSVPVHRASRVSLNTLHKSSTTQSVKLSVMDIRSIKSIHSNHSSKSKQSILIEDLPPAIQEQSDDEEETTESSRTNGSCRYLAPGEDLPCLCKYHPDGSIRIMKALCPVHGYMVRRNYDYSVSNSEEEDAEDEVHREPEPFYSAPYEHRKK

ASIC-1 = target: T2, ASIC-1 (Caenorhabditis elegans, UniProt O01635)
T2 construct: full-length cDNA in KSM vector, Xenopus laevis oocytes, homomeric channel (trimer by known biology)
T2 sequence (O01635 1-823): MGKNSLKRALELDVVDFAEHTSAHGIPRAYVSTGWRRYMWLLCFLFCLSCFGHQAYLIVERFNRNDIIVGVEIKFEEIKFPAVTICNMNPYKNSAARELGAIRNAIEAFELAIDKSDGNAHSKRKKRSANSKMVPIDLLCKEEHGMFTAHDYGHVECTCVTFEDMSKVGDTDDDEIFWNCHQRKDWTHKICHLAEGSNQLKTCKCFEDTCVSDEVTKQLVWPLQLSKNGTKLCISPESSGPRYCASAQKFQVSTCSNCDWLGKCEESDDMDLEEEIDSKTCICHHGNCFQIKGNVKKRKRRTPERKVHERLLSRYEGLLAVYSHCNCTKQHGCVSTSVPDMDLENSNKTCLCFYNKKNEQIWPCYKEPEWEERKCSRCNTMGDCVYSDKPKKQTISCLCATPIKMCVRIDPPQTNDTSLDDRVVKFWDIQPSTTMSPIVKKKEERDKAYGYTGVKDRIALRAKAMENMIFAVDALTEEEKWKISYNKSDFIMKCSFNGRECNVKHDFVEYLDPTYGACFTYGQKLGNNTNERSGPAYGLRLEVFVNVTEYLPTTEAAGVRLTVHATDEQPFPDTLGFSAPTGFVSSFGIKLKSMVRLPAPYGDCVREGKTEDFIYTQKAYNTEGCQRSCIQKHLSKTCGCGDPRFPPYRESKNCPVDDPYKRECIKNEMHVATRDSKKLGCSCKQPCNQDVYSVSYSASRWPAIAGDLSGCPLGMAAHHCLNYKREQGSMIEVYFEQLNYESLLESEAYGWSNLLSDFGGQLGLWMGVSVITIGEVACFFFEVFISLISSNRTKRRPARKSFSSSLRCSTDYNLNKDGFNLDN

UNC-105h [2] = target: T1, UNC-105h; details: pH 7.4, -60 mV, ND96, room temperature; paradoxical biphasic response, low-concentration inhibition

Q: For `N=C(N)NC(=O)c1nc(Cl)c(N)nc1N` [amiloride], which EC50 (UNC-105h [1]) is on record?
A: 5.9 µM

Q: And the IC50 (ASIC-1)?
A: 108 µM

Q: And the IC50 (UNC-105h [2])?
A: 0.76 µM
